This is an account of results in patent US20220331492A1, “COMPOSITION AND METHOD FOR CONTROLLED DRUG RELEASE FROM A TISSUE” (Bard Shannon Limited, priority 2017, published 2022).

The conditions of data set [1]: cited from earlier work.
For data set [2] the following is noted: mixed with fibrin glue; cited from earlier work.
Data set [3] can be described thus: In vitro drug release from antibiotic-encapsulated PLGA microparticles. Format: physicochemical. As to conditions: drug encapsulated in free PLGA (50:50) microparticles; buffer, 37° C., 120 rpm. On the procedure: The amount of antibiotic was determined by dissolving 20 mg beads in 1 mL NaOH 1 M at 37° C. After complete dissolution, 1 mL of HCl 1 M was added to neutralize the pH. […] A mixture of NaOH 1 M and HCl 1 M (1:1) was used as a blank.
The gentamicin concentration was determined by a colormetric assay: 0.5 mL of the gentamicin solution was mixed with 0.35 mL of sodium phosphate buffer (50 mM, pH 7.4) and 0.15 mL of 1.25% ninhydrin solution. The reaction occurred at 95° C. for 15 minutes and the tubes were then cooled in an ice-water bath for 10 min. The UV-visible spectra over the wavelength range of 200-700 nm were measured using the mixture of ninhydrin and the respective buffer solution at the appropriate concentrations as the blanks. The gentamicin concentration was calculated at the maximal absorbance (λmax˜315 nm).
The microspheres (25 mg of ciprofloxacin-encapsulated PLGA beads, 80 mg of gentamicin encapsulated PLGA beads, 40 mg of vancomycin-encapsulated PLGA beads) were placed into glass vials filled with 10 mL solution (PBS for vancomycin and ciprofloxacin-encapsulated PLGA beads and sodium phosphate buffer for gentamicin encapsulated PLGA beads). The vials were placed in an orbital shaker incubator at 37° C., where they were shaken at 120 rpm. […] Finally, the 1.5 mL of suspension were returned back into the glass vials. For gentamicin, the reaction with ninhydrin is irreversible. 0.5 ml, of the solution was replaced each day with fresh sodium phosphate buffer to maintain a constant volume.

A short description of data set [4]: Release of ciprofloxacin from PLGA microparticles embedded in enzymatically crosslinked gelatin matrix. The data set is classed as physicochemical. On the procedure:
Entrapment of microparticles in enzymatically crosslinked gelatin hydrogel was performed as follows.
This solution was mixed with 5.0 gr of gelatin solution. 0.25 gr of the mixture was cast in a glass vial, and curing occurred at 37° C. for 15 min. 5 mL of PBS was added to the vial to wash the gel. An additional 5 mL of PBS was added and the vial was placed in an orbital shaker incubator at 37° C. where it was shaken at 120 rpm. Once a day, 1.5 mL of the cured gel extract was centrifuged and 1 mL of the supernatant was taken to spectrophotometer to measure the drug concentration. After measurement, the 1.5 mL extract was returned back into the glass vials, crosslinked gelatin without beads was casted according to the same procedure and the extract was used as blank.

For data set [5], the system named is Bacillus subtilis (ATCC 6633). The data set is described as follows: Agar disk-diffusion (Kirby-Bauer) assay of crosslinked gelatin discs containing antibiotic PLGA beads. As to conditions: crosslinked gelatin hydrogel containing drug-loaded PLGA MPs; gels incubated in saline for 14 days. The data set is classed as cell-based. The protocol: (§1) The bacteria used was Bacillus subtilis, which serves as a model microorganism for gram positive bacteria.
3 discs of 0.2 gr crosslinked gelatin containing 2% vancomycin-gentamicin-encapsulated PLGA beads were casted as previously reported 3 additional discs without beads were also casted and used as negative control. Filters containing 30 μg antibiotics (gentamicin or vancomycin) were used as positive controls.
The gel discs with and without beads and the filter containing antibiotics were placed in LB agar plates on which 100 μl of bacterium suspension had been evenly spread. The petri dishes were placed in an orbital shaker incubator at 37° C. where a horizontal shake was performed at 120 rpm.

The subject of data set [6] is Bacillus subtilis (ATCC 6633). Put plainly: Microdilution assay of hydrogel disc extracts versus MIC. The data set is classed as cell-based. As to conditions: extracts of crosslinked gelatin hydrogel containing 2% drug-loaded PLGA beads; throughout the study (1-14 days). The protocol:
as §1
6 discs of 0.2 gr crosslinked gelatin containing 2% vancomycin/gentamicin-encapsulated PLGA beads were casted in plastic mold of 12 mm diameter. After […] of curing at 37° C., the gels were separately placed in glass vial filled with 1.5 mL sodium phosphate buffer. The vials were placed in an incubator at 37° C. After 1, 2, 4, 7, 11 and 14 days, the gel was taken out and the hydrogel extract was frozen until test.
The antibacterial activity of the hydrogel discs extracts was studied by employing a microdilution method (FIG. 3b). Plates were prepared under sterile conditions. 100 μL of test materials were pipetted into the first column of the sterile 96-well plate. To all other wells 50 μL of saline was added. Serial dilutions were performed using a multichannel pipette. Tips were discarded after use such that each well had 50 μL of the test material in serially descending concentrations. […]
After 24 hours, the OD of each well was measured at 600 nm to determinate the presence or absence of bacterium. The lowest concentration at which […] was taken as the MIC value.

With `CCOC(=O)c1ccc(N)cc1` [Benzocaine], the water solubility entry in data set [1] is “very low”.

Regarding `Cc1nnc(SCC2=C(C(=O)O)N3C(=O)[C@@H](NC(=O)Cn4cnnn4)[C@H]3SC2)s1` [cefazolin], the release time in data set [2] is 2 days.

Take `O=C(O)c1cn(C2CC2)c2cc(N3CCNCC3)c(F)cc2c1=O` [ciprofloxacin]: the “release kinetics after initial burst release” value (“release kinetics” for short) in data set [3] was “zero order kinetics”. In data set [4] (PLGA MPs embedded in in situ cross-linkable gelatin matrix), the “time over which the drug eluted” value is 2 weeks. Further, in data set [4] (PLGA MPs embedded in in situ enzymatically crosslinked gelatin, PBS, 37° C.), the “release rate of MPs embedded in gelatin matrix compared to free MPs” value is “somewhat slower”.

Take `CN[C@H](CC(C)C)C(=O)N[C@H]1C(=O)N[C@@H](CC(N)=O)C(=O)N[C@H]2C(=O)N[C@H]3C(=O)N[C@H](C(=O)N[C@H](C(=O)O)c4cc(O)cc(O)c4-c4cc3ccc4O)[C@H](O)c3ccc(c(Cl)c3)Oc3cc2cc(c3O[C@@H]2O[C@H](CO)[C@@H](O)[C@H](O)[C@H]2O[C@H]2C[C@](C)(N)[C@H](O)[C@H](C)O2)Oc2ccc(cc2Cl)[C@H]1O` [vancomycin]: the “release kinetics” value in data set [3] is “zero order kinetics”. In addition, the “bacteria killing (ring around the gel) in agar diffusion assay” value in data set [5] is on record as “still had enough drug remaining within the matrix to induce bacteria killing”. The “concentration of the eluted antibiotic drug relative to MIC” value in data set [6] is “considerably above MIC”.

In the case of gentamycin, in data set [3], the “release kinetics” value is “zero order kinetics”. Also, the “bacteria killing (ring around the gel) in agar diffusion assay” value in data set [5] is “still had enough drug remaining within the matrix to induce bacteria killing”. The “concentration of the eluted antibiotic drug relative to MIC” value in data set [6] is listed as “considerably above MIC”.
